The values that follow come from patent US7700765B2, “DNA minor groove binding compounds” (University of Strathclyde, priority 2001, dated 2010).

One assay deals with Aspergillus nidulans. The experiment in a line: Minimum inhibitory concentration (MIC) against microorganisms. Format: cell-based. Conditions: Organism: Aspergillus nidulans. The source says: (§1) Minimum inhibitory concentrations (MICs) against microorganisms (e.g. S. Aureus, E. coli, S. faecalis, P. vulgaris, MRSA, Aspergillus niger, Candida albicans, Klebs. aerogenes, Ent. cloacae, Mycobacterium fortuitum or Aspergillus nidulans) for compounds of the invention may be measured using procedures such as those described in A. J. Drummond and R. D. Waigh “The development of microbiological methods for phytochemical screening” Recent Res. Devel. Phytochem. 4, 143-152 (2000).

The subject of the next assay is Aspergillus niger. The assay is described as above. Format: cell-based. Conditions: Organism: Aspergillus niger.
Description: as §1

Another assay concerns Candida albicans. Described as above. Format: cell-based. Conditions: Organism: Candida albicans.
Description: as §1

For the next assay, the system named is E. coli. The assay is described as above. The assay is classed as cell-based. The conditions noted are these: Escherichia coli; Organism: E. coli.
Description: as §1

The next assay deals with Ent. cloacae. Described as above. Format: cell-based. Conditions: Enterobacter cloacae; Organism: Ent. cloacae.
Description: as §1

In another assay the test system is Klebs. aerogenes. The description is as above. The assay is classed as cell-based. Conditions: Klebsiella aerogenes; Organism: Klebs. aerogenes.
Description: as §1

The subject of another assay is MRSA. Described as above. The assay is classed as cell-based. Conditions: Staphylococcus aureus; Organism: MRSA.
Description: as §1

Another assay relates to Mycobacterium fortuitum. Described as above. Format: cell-based. Conditions: Mycolicibacterium fortuitum; Organism: Mycobacterium fortuitum.
Description: as §1

The subject of a further assay is P. vulgaris. Described as above. The assay is classed as cell-based. The conditions noted are these: Proteus vulgaris; Organism: P. vulgaris.
Description: as §1

The subject of the next assay is S. aureus. The description is as above. Format: cell-based. The conditions noted are these: Staphylococcus aureus; Organism: S. aureus.
Description: as §1

The subject of a further assay is S. faecalis. Described as above. The assay is classed as cell-based. Conditions: Enterococcus faecalis; Organism: S. faecalis.
Description: as §1

The test system of assay [1] is double-stranded DNA decamer CGACTAGTCG (SEQ ID NO:3). The experiment in a line: Capillary electrophoresis ligand-DNA binding study. The conditions noted are these: drug to DNA ratio up to 4:1. The text has this:
(§2) Typically, ligand binding results in a change in migration time of the DNA and sometimes a change in peak shape.
(§3) The following are shown in FIGS. 1-6: • (a) the experimental conditions, including the DNA sequence(s); • (b) the result of sequential addition of ligand; and • (c) the structure of the ligand being investigated. Key to FIGS. 1 to 6: • r0=electropherogram in the absence of drug • rX=(where X is 0.5, 1, 2, 3 or 4) electropherogram in the presence of drug, where the drug:DNA ratio (in terms of concentration) is X:1
This ratio corresponds to the binding ratio.

The target in a further assay is DNA. Conditions: binding to DNA; read-out: dissociation constants; cited from earlier work.
Assay [2] concerns NFκB protein-DNA complexes. Description: NFκB DNA-binding assay (gel shift) with macrophage nuclear extracts. Format: biochemical, Murine. Conditions: 1 μL of a 1 mM solution, final volume 10 μL; nuclear protein from macrophages exposed to LPS. As to the method: Murine macrophages (obtained and cultured as described in Cell. Signal. 11(7), 491 (1999), hereinafter referred to as “Reference 1”, the disclosures of which document are hereby incorporated by reference) were exposed to vehicle (see Reference 1) or 1 μg/mL lipopolysaccharide (LPS; the active component of gram-negative endotoxin and a strong activator of the Nuclear Factor kappa B (NFκB) pathway; the particular LPS being obtained from Salmonella minnesota) for 1 hour and nuclear extracts prepared by standard procedures (see Brit. J. Pharmacol. 134, 393 (2001), hereinafter referred to as “Reference 2”, the disclosures of which document are hereby incorporated by reference).
Aliquots of compounds (1 μL of a 1 mM solution) were incubated with 1 μL (0.035 pmol) of a ^32P-labelled 20 bp double-stranded DNA oligonucleotide (representing the consensus binding sequence for NFκB proteins (see Reference 2 and Brit. J. Pharmacol. 134, 1629-1638 (2001), the disclosures of which latter document are hereby incorporated by reference)) for 30 min at room temperature. […] The formation of NFκB protein-DNA complexes and potential inhibition of complex formation in the presence of the above compounds was detected by autoradiography. […]
In general terms: In EMSA bound probe runs differently from free probe, usually more slowly.

The test system of assay [3] is double-stranded DNA oligonucleotide AAATTATATTAT (SEQ ID NO:1). The experiment in a line: Capillary electrophoresis ligand-DNA binding study. The conditions noted are these: AAATTATATTAT versus GGGCCGCGCCGC
Description: Capillary electrophoresis was used to study of ligand-DNA binding (see: (i) Hamdan, I. I.; Skellern, G. G.; and Waigh, R. D. “Separation of pd(GC)12 from pd(AT)12 by free solution capillary electrophoresis”, J. Cromatogr. A. 806, 165-168 (1998); (ii) Hamdan, I. I.; Skellern, G. G.; and Waigh, R. D. “Use of capillary electrophoresis in the study of ligand-DNA interactions”, Nucleic Acids Research 26, 3053-3058 (1998); (iii) Hamdan, I. I.; Skellern, G. G.; and Waigh, R. D. “Ligand binding to oligonucleotides” Methods in Molecular Biology, Vol. 163, “Capillary Electrophoresis of Nucleic acids”, Vol 2, pages 379-391, K. R. Mitchelson and J. Cheng Eds., Humana Press, New Jersey, (2000)).
as §2, §3
This ratio corresponds to the binding ratio. […]

SMILES strings stand for the structures. ≈ marks a conversion by molar mass, not a printed value.

Broadly, the MIC is the lowest concentration found to suppress growth. In the case of `OC(Cn1cncn1)(Cn1cncn1)c1ccc(F)cc1F` [Fluconazole, reference compound], the MIC in the assay on Aspergillus nidulans was 40.8 µM (≈ 12.5 µg/mL); against Aspergillus niger, > 327 µM; in the assay with Candida albicans, 81.6 µM (≈ 25 µg/mL).

Turning to `CC(C)c1sc(NC(=O)c2cc(NC(=O)c3cc(NC=O)cn3C)cn2C)nc1C(=O)NCCCN(C)C` [Example 3, N-[3-(Dimethylamino)propyl]-2-({[4-({[4-(formylamino)-1-methyl-1H-pyrrol-2-yl]carbonyl}amino)-1-methyl-1H-pyrrol-2-yl]carbonyl}amino)-5-isopropyl-1,3-thiazole-4-carboxamide], the minimum inhibitory concentration (MIC) was 38.1 µM (≈ 20.7 µg/mL) against Aspergillus nidulans; 76.1 µM (≈ 41.3 µg/mL) against Aspergillus niger; 76.1 µM (≈ 41.3 µg/mL) against Candida albicans; > 152 µM in the assay with E. coli; 76.2 µM (≈ 41.4 µg/mL) in the assay on Ent. cloacae; 76.2 µM (≈ 41.4 µg/mL) with Klebs. aerogenes. For the same molecule, the MIC in the assay on MRSA is 38.1 µM (≈ 20.7 µg/mL); with Mycobacterium fortuitum, 19 µM (≈ 10.3 µg/mL); in the assay with P. vulgaris, 152 µM (≈ 82.6 µg/mL); against S. aureus, 4.7 µM (≈ 2.55 µg/mL); in the assay with S. faecalis, 9.5 µM (≈ 5.16 µg/mL).

For the molecule `CC(C)CCn1cc(NC(=O)c2ccc3[nH]c(C(=O)Nc4cc(C(=O)Nc5cc(C(=O)NCCCN6CCOCC6)n(C)c5)n(CCC(C)C)c4)cc3c2)cc1C(=O)Nc1cc(C(=O)NCCCN2CCOCC2)n(C)c1` [Example 17, N^2,N^5-Bis[1-isopentyl-5-({[1-methyl-5-({[3-(4-morpholinyl)propyl]amino}-carbonyl)-1H-pyrrol-3-yl]amino}carbonyl)-1H-pyrrol-3-yl]-1H-indole-2,5-dicarboxamide], the MIC was 77.7 µM (≈ 82.2 µg/mL) with Aspergillus nidulans; > 77.7 µM with Aspergillus niger; > 77.7 µM with Candida albicans; > 77.7 µM with E. coli; > 77.7 µM in the assay with Ent. cloacae; 38.9 µM (≈ 41.2 µg/mL) with Klebs. aerogenes. The MIC is > 77.7 µM against MRSA; > 77.7 µM in the assay with Mycobacterium fortuitum; 77.7 µM (≈ 82.2 µg/mL) against P. vulgaris; 19.4 µM (≈ 20.5 µg/mL) in the assay with S. aureus; 77.7 µM (≈ 82.2 µg/mL) against S. faecalis.

On to `Cn1cc(NC(=O)c2cc(NC(=O)c3cc(NC=O)cn3C)cn2C)cc1C(=O)NCCC(=N)N` [distamycin, reference compound], for which the “affinity for the sequence” value in assay [1] is recorded as “no affinity”. The Kd on DNA was ~10 µM.

In the assay with Mycobacterium fortuitum, `[H]/N=C(/N)N[C@H]1[C@H](O)[C@@H](O)[C@H](O[C@@H]2O[C@@H](C)[C@](O)(C=O)[C@H]2O[C@@H]2O[C@@H](CO)[C@H](O)[C@@H](O)[C@@H]2NC)[C@@H](N/C(N)=N\[H])[C@@H]1O` [Streptomycin, reference compound] returned a minimum inhibitory concentration (MIC) of 21.5 µM (≈ 12.5 µg/mL).

Consider `CC1(C)S[C@@H]2[C@H](NC(=O)[C@H](N)c3ccc(O)cc3)C(=O)N2[C@H]1C(=O)O` [Amoxicillin, reference compound], for which the minimum inhibitory concentration (MIC) with E. coli was determined as 2 µM (≈ 0.731 µg/mL); with Ent. cloacae, 4 µM (≈ 1.46 µg/mL); against Klebs. aerogenes, 32.3 µM (≈ 11.8 µg/mL); with MRSA, 16.1 µM (≈ 5.88 µg/mL); with P. vulgaris it was 8.1 µM (≈ 2.96 µg/mL); in the assay on S. aureus, 0.49 µM (≈ 0.179 µg/mL). The minimum inhibitory concentration (MIC) in the assay on S. faecalis is 0.49 µM (≈ 0.179 µg/mL).

With `CC(C)n1cc(NC(=O)c2cc(NC=O)cn2C)cc1C(=O)Nc1cc(C(=O)NCCCN(C)C)n(C)c1` [Example 2, N-[5-({[5-({[3-(Dimethylamino)propyl]amino}carbonyl)-1-methyl-1H-pyrrol-3-yl]amino}carbonyl)-1-isopropyl-1H-pyrrol-3-yl]-4-(formylamino)-1-methyl-1H-pyrrole-2-carboxamide], in [2], the “effect on LPS-stimulated NFκB-DNA binding activity” value is recorded as “little effect”.

With `CC(C)c1sc(NC(=O)c2cc(NC(=O)c3ccc4c(c3)CCc3cc(C(=O)Nc5cc(C(=O)Nc6nc(C(=O)NCCCN(C)C)c(C(C)C)s6)n(C)c5)ccc3-4)cn2C)nc1C(=O)NCCCN(C)C` [Example 28, N^2,N^7-Bis[5-({[4-({[3-(dimethylamino)propyl]amino}carbonyl)-5-isopropyl-1,3-thiazol-2-yl]amino}carbonyl)-1-methyl-1H-pyrrol-3-yl]-9,10-dihydro-2,7-phenanthrenedicarboxamide], the minimal inhibitory concentration (MIC) with Aspergillus nidulans was 20.1 µM (≈ 20.4 µg/mL); in the assay with Aspergillus niger, > 80.3 µM; in the assay with Candida albicans, > 80.3 µM; in the assay on E. coli, > 80.3 µM; with Ent. cloacae, > 80.3 µM; against Klebs. aerogenes it was > 80.3 µM. Besides, the minimum inhibitory concentration (MIC) in the assay on MRSA was 10 µM (≈ 10.2 µg/mL); against Mycobacterium fortuitum, 40.1 µM (≈ 40.8 µg/mL); against P. vulgaris, > 80.3 µM; against S. aureus, 80 µM (≈ 81.4 µg/mL); against S. faecalis, 10 µM (≈ 10.2 µg/mL).

For `Cn1cc(NC(=O)c2cc(NC(=O)CN=C(N)N)cn2C)cc1C(=O)NCCC(=N)N` [netropsin], the AT selectivity entry in assay [3] is “AT selective”. Moreover, at DNA, the Kd was ~10 µM.

As for `CC(C)c1sc(NC(=O)c2cc(NC=O)cn2C)nc1C(=O)Nc1cc(C(=O)NCCCN(C)C)n(C)c1` [Example 7, N-[5-({[3-(Dimethylamino)propyl]amino}carbonyl)-1-methyl-1H-pyrrol-3-yl]-2-({[4-(formylamino)-1-methyl-1H-pyrrol-2-yl]carbonyl}amino)-5-isopropyl-1,3-thiazole-4-carboxamide], the minimal inhibitory concentration (MIC) was 9.5 µM (≈ 5.16 µg/mL) against Aspergillus nidulans; 38.1 µM (≈ 20.7 µg/mL) in the assay on Aspergillus niger; 38.1 µM (≈ 20.7 µg/mL) against Candida albicans; > 152 µM with E. coli; 9.5 µM (≈ 5.16 µg/mL) with Ent. cloacae; 38.1 µM (≈ 20.7 µg/mL) against Klebs. aerogenes. The MIC with MRSA was found to be 19.1 µM (≈ 10.4 µg/mL); in the assay on Mycobacterium fortuitum, 19 µM (≈ 10.3 µg/mL); against P. vulgaris, 152 µM (≈ 82.7 µg/mL); against S. aureus, 4.8 µM (≈ 2.6 µg/mL); with S. faecalis it was 9.5 µM (≈ 5.16 µg/mL).
